According to the supplement of paper PMC13380429:

Key:
Conditions in all cases: 72 h
Caco-2 [1] = assay: drug sensitivity score (DSS) for viability; higher = more toxic; extreme values may be limits of the assay
Vero E6 [2] = assay: as above
HepG2 [3] = assay: as above
Calu-3 [4] = assay: as above
U2OS [5] = assay: as above
Caco-2 [6] = assay: relative viability EC50 (midpoint between 100% and the lowest measured viability); higher = less toxic
Vero E6 [7] = assay: as above
HepG2 [8] = assay: as above
Calu-3 [9] = assay: as above
U2OS [10] = assay: as above
Caco-2 [11] = assay: cell viability relative to DMSO; higher = less toxic
Vero E6 [12] = assay: as above
HepG2 [13] = assay: as above
Calu-3 [14] = assay: as above
U2OS [15] = assay: as above

| SMILES | drug sensitivity score (Caco-2 [1]) | drug sensitivity score (Vero E6 [2]) | drug sensitivity score (HepG2 [3]) | drug sensitivity score (Calu-3 [4]) | drug sensitivity score (U2OS [5]) | relative viability EC50 (Caco-2 [6]) [nM] | relative viability EC50 (Vero E6 [7]) [nM] | relative viability EC50 (HepG2 [8]) [nM] | relative viability EC50 (Calu-3 [9]) [nM] | relative viability EC50 (U2OS [10]) [nM] | cell viability (Caco-2 [11]; 1 nM) [%] | cell viability (Caco-2 [11]; 10 nM) [%] | cell viability (Caco-2 [11]; 100 nM) [%] | cell viability (Caco-2 [11]; 1000 nM) [%] | cell viability (Caco-2 [11]; 10000 nM) [%] | cell viability (Vero E6 [12]; 1 nM) [%] | cell viability (Vero E6 [12]; 10 nM) [%] | cell viability (Vero E6 [12]; 100 nM) [%] | cell viability (Vero E6 [12]; 1000 nM) [%] | cell viability (Vero E6 [12]; 10000 nM) [%] | cell viability (HepG2 [13]; 1 nM) [%] | cell viability (HepG2 [13]; 10 nM) [%] | cell viability (HepG2 [13]; 100 nM) [%] | cell viability (HepG2 [13]; 1000 nM) [%] | cell viability (HepG2 [13]; 10000 nM) [%] | cell viability (Calu-3 [14]; 1 nM) [%] | cell viability (Calu-3 [14]; 10 nM) [%] | cell viability (Calu-3 [14]; 100 nM) [%] | cell viability (Calu-3 [14]; 1000 nM) [%] | cell viability (Calu-3 [14]; 10000 nM) [%] | cell viability (U2OS [15]; 1 nM) [%] | cell viability (U2OS [15]; 10 nM) [%] | cell viability (U2OS [15]; 100 nM) [%] | cell viability (U2OS [15]; 1000 nM) [%] | cell viability (U2OS [15]; 10000 nM) [%] |
| --- | --- | --- | --- | --- | --- | --- | --- | --- | --- | --- | --- | --- | --- | --- | --- | --- | --- | --- | --- | --- | --- | --- | --- | --- | --- | --- | --- | --- | --- | --- | --- | --- | --- | --- | --- |
| C[n+]1c2cc(N)ccc2cc2ccc(N)cc21 [acriflavinium] | 8.3 | 5.2 | 14.4 | 4.9 | 4.5 | 594 | 1270 | 516 | 2620 | 3200 | 97.4 | 91.1 | 91 | 62.3 | 37.4 | 96.9 | 94.8 | 103 | 82 | 49.3 | 84.1 | 85.9 | 88.6 | 33.1 | 1.2 | 108 | 108 | 99.3 | 94.9 | 25.8 | 98.7 | 101 | 99.7 | 100 | 18.2 |
| O=C(/C=C/c1cccc(F)c1)NC1CC1 [cinflumide] | 0 | 0 | 0.5 | 0 | 0 | > 10000 | > 10000 | > 10000 | > 10000 | > 10000 | 104 | 99.9 | 95.5 | 99.3 | 98.1 | 101 | 98.7 | 106 | 102 | 91.8 | 92.8 | 101 | 101 | 97.7 | 84.8 | 96.8 | 91.7 | 102 | 99.9 | 96.4 | 98.9 | 101 | 91.5 | 98 | 99.8 |
| C[C@H](CSC(=O)c1ccccc1)C(=O)N1C[C@@H](Sc2ccccc2)C[C@H]1C(=O)O [zofenopril-calcium] | 0 | 0 | 0 | 0.2 | 0 | > 10000 | > 10000 | > 10000 | > 10000 | > 10000 | 86.1 | 94.3 | 106 | 96.6 | 99.6 | 114 | 99.9 | 103 | 101 | 106 | 101 | 108 | 94.7 | 102 | 95.3 | 92.9 | 90.7 | 105 | 96 | 88.3 | 98.4 | 102 | 99.6 | 95.1 | 101 |
| O=C(Nc1ccc(O)cc1)c1ccccc1O [N-salicoylaminophenol] | 0 | 0 | 0 | 0 | 0 | > 10000 | > 10000 | > 10000 | > 10000 | > 10000 | 94.3 | 96 | 97.4 | 94.7 | 92.7 | 93.2 | 99.4 | 90.9 | 93.1 | 110 | 90.2 | 106 | 92.1 | 105 | 113 | 105 | 99.1 | 95.2 | 94.1 | 94.7 | 96.6 | 98.1 | 95.6 | 97.4 | 93.3 |
| NCCCC[C@@H]1NC(=O)[C@@H](Cc2c[nH]c3ccccc23)NC(=O)[C@H](c2ccccc2)NC(=O)[C@@H]2C[C@@H](OC(=O)NCCN)CN2C(=O)[C@H](Cc2ccccc2)NC(=O)[C@H](Cc2ccc(OCc3ccccc3)cc2)NC1=O [pasireotide] | 0 | 0 | 0 | 0 | 0 | > 10000 | > 10000 | > 10000 | > 10000 | > 10000 | 108 | 107 | 88.4 | 110 | 146 | 98.9 | 89 | 96 | 83.6 | 96.8 | 91.9 | 105 | 114 | 102 | 93.3 | 102 | 101 | 87.8 | 106 | 108 | 96.7 | 104 | 95.8 | 102 | 108 |
| CN(C)c1ccc(C(=C2C=CC(=[N+](C)C)C=C2)c2ccc(N(C)C)cc2)cc1 [crystal-violet] | 16.9 | 16.9 | 15.7 | 13.3 | 15.6 | 295 | 382 | 432 | 715 | 477 | 86.3 | 94.9 | 80.9 | 21.4 | 4.4 | 96 | 89.5 | 100 | 6.8 | -0.4 | 112 | 89.9 | 111 | 10.7 | 3.6 | 100 | 94 | 104 | 31.5 | 2.1 | 96.6 | 100 | 96.4 | 17.4 | -0.4 |
| C=CCNC1=C2C[C@@H](C)C[C@H](OC)[C@H](O)[C@@H](C)/C=C(\C)[C@H](OC(N)=O)[C@@H](OC)/C=C\C=C(/C)C(=O)NC(=CC1=O)C2=O [tanespimycin] | 7.7 | 9.8 | 33.3 | 13.5 | 21 | 1180 | 768 | 17.4 | 161 | 164 | 93.6 | 98.8 | 101 | 71.8 | 29.2 | 108 | 100 | 104 | 51.4 | 26.5 | 113 | 80.2 | 1.9 | 1.3 | 2.2 | 108 | 105 | 83.3 | 40.2 | 38.2 | 101 | 102 | 73.2 | 4.8 | 1.8 |
| CS(=O)(=O)c1ccc([C@@H](CC2CCCC2)C(=O)Nc2nccs2)cc1 [Ro-28-1675] | 0 | 0 | 0 | 0 | 0 | > 10000 | > 10000 | > 10000 | > 10000 | > 10000 | 92 | 97.8 | 102 | 106 | 92.2 | 95.5 | 95.2 | 96.8 | 91.1 | 98.9 | 97.2 | 96.4 | 108 | 90.8 | 103 | 103 | 100 | 114 | 99.6 | 99.3 | 101 | 96.1 | 101 | 102 | 98.9 |
| CC[C@@H](C)Nc1cc(C(=O)N[C@H]2C[C@H]3CC[C@@H](C2)N3c2ccc(C(=O)C3CC3)cn2)c(C)cc1C(N)=O [XL888] | 17.3 | 12.7 | 30.8 | 16.8 | 24.2 | 71 | 315 | 28.5 | 63.6 | 87.2 | 104 | 94.3 | 59.3 | 32.8 | 35.2 | 104 | 104 | 99.8 | 30.4 | 52.4 | 108 | 93.4 | 4.8 | 1.3 | 1 | 92.4 | 101 | 53.6 | 43.1 | 38.7 | 97.2 | 104 | 43.4 | 4.3 | 3.4 |
| COc1ccc(Cl)cc1C(=O)NCCc1ccc(C(=O)O)cc1 [meglitinide] | 0 | 0 | 0.3 | 0 | 0 | > 10000 | > 10000 | > 10000 | > 10000 | > 10000 | 90.9 | 102 | 94.8 | 91.5 | 98.1 | 98.4 | 105 | 100 | 104 | 103 | 109 | 106 | 110 | 88.7 | 94.2 | 108 | 103 | 98.1 | 96.8 | 114 | 101 | 98.2 | 98.6 | 93.4 | 99.6 |
| C[C@H]1C[C@H]2[C@@H]3CCC4=CC(=O)C=C[C@]4(C)[C@H]3C(=O)C[C@]2(C)[C@@]1(O)C(=O)CO [Betapar (Meprednisone)] | 0 | 0 | 0 | 0 | 0 | > 10000 | > 10000 | > 10000 | > 10000 | > 10000 | 86.1 | 91.1 | 87.4 | 103 | 94.8 | 103 | 102 | 101 | 99.7 | 97.4 | 83.6 | 97.3 | 95.5 | 95.9 | 86.5 | 92.9 | 93.2 | 91.5 | 91 | 97.8 | 97.6 | 98.3 | 96 | 98.2 | 95.1 |
